Experimental data from patent US4410716A, “Dibenzo[a,d]cycloheptene derivatives and process for production thereof” (Toa Eiyo Kagaku Kogyo Co. Ltd., priority 1979, dated 1983).
Where two headings read alike, the source gives them in different places.

Assays:
gastric wall = assay: in vivo; conditions: for Number of animals with ulcer/number of animals used: 16 hours; for Ulcer index (Mean ± SE): Adami's method
Experimental: (§1) The anti-inflammatory activity, analgesic activity and ulcerogenic activity of the novel dibenzo[a,d]cycloheptene derivatives of this invention were tested by the following methods.
(§2) Sixteen hours later, the rats were sacrificed under ether anesthesia.
(§3) *Calculated by the Adami's method.
(§4) **Calculated by the LitchfieldWilcoxon's method. The parenthesized values
(§5) show 95% confidence limits.

in vivo = conditions: rat, in vivo, po
Experimental: as §1, §2, §3, §4, §5

[1] = test system: writhing syndromes (acetic acid); assay: Analgesic activity: acetic acid writhing in mice; type: in vivo, male ICR mice
Experimental: as §1
Using male ICR mice weighing 25 to 30 g (10 mice per group), there was measured the number of writhing syndromes induced when a 1% solution of acetic acid was intraperitoneally injected at a dose of 10 ml/kg. The percent inhibition against a control group was calculated.

[2] = test system: edema (carrageenin, hind paw); assay: Anti-inflammatory activity: carrageenin hind paw edema in rats, oral administration; type: in vivo, male Donryu rats; conditions: Rattus norvegicus, po; for inhibition in vivo at 1 mg/kg / inhibition in vivo at 5 mg/kg / inhibition in vivo at 10 mg/kg: read-out: Percent edema inhibition
Experimental: as §1
Each of test compounds was orally administered to groups of male Donryu rats weighing 130 to 150 g (8 to 10 rats per group), and one hour later, 0.1 ml of a 1% carrageenin solution was injected subcutaneously into the hind paw of each rat. After injection of carrageenin, the volume of the paw was measured at predetermined periods, and the percent inhibition against a control group was calculated.

## COc1ccc2c(c1)c(CC(=O)O)c(C)n2C(=O)c1ccc(Cl)cc1 [Indomethacin, reference compound]
Gastric wall; 3.13 mg/kg oral
  Number of animals with ulcer/number of animals used: 0/8
  Ulcer index (Mean ± SE): 0
Gastric wall; 6.25 mg/kg oral
  Number of animals with ulcer/number of animals used: 2/8
  Ulcer index (Mean ± SE): 0.37 ± 0.26
Gastric wall; 12.5 mg/kg oral
  Number of animals with ulcer/number of animals used: 4/8
  Ulcer index (Mean ± SE): 1.38 ± 0.53
Gastric wall; 25.0 mg/kg oral
  Number of animals with ulcer/number of animals used: 7/8
  Ulcer index (Mean ± SE): 1.88 ± 0.35
Gastric wall; 50.0 mg/kg oral
  Number of animals with ulcer/number of animals used: 8/8
  Ulcer index (Mean ± SE): 3.12 ± 0.12
In vivo
  TD50 at 16 h: 11.7 mg/kg
  selectivity ratio: 1.2
[1]; 1.25 mg/kg
  Inhibition (writhing): 27.7%
  Number of writhing syndromes (Mean ± SE): 14.6 ± 2.35
[1]; 2.5 mg/kg
  Inhibition (writhing): 40.6%
  Number of writhing syndromes (Mean ± SE): 12.0 ± 0.92
[1]; 5.0 mg/kg
  Inhibition (writhing): 48.0%
  Number of writhing syndromes (Mean ± SE): 10.5 ± 1.40
[1]; 10.0 mg/kg
  Inhibition (writhing): 62.4%
  Number of writhing syndromes (Mean ± SE): 7.6 ± 1.15
[1]; 20.0 mg/kg
  Inhibition (writhing): 70.3%
  Number of writhing syndromes (Mean ± SE): 6.0 ± 0.94
[1]; Mus musculus, po, read-out: ED50 value
  ED50: 5 mg/kg
[2]; 1 h
  inhibition in vivo at 1 mg/kg: 0%
  inhibition in vivo at 5 mg/kg: 3.9%
  inhibition in vivo at 10 mg/kg: 37.2%
[2]; 2 h
  inhibition in vivo at 1 mg/kg: 20.3%
  inhibition in vivo at 5 mg/kg: 31.1%
  inhibition in vivo at 10 mg/kg: 45.3%
[2]; 3 h, read-out: ED40 value
  ED40: 9.8 mg/kg
[2]; 3 h
  inhibition in vivo at 1 mg/kg: 6.3%
  inhibition in vivo at 5 mg/kg: 25.9%
  inhibition in vivo at 10 mg/kg: 41.8%
[2]; 4 h
  inhibition in vivo at 1 mg/kg: 10.2%
  inhibition in vivo at 5 mg/kg: 31.7%
  inhibition in vivo at 10 mg/kg: 40.5%
